# Assay results from patent US9572785B2, “DP2 antagonist and uses thereof” (Brickell Biotech, Inc., priority 2009, dated 2017).
# Like-named read-outs stand apart in the source and are kept apart here.
# Key:
# [1] = Compound 1 2 mg/kg intravenous, semi-quantitative
# Procedure: Rats with surgically placed bile duct and jugular vein cannula were purchased from Charles River Laboratories and allowed to acclimate for 2 days. […] Bile was collected at time-points 0-2, 2-5, 5-8, and 8-24 hrs post-dose in 8 mL scintillation vials and stored at −40° C. until LC-MS/MS analysis.
# Analyses were performed using a Waters YMC ODS-AQ column (2.1×150 mm; 3 μm) linked to a Shimadzu LC-10AD VP with SCL-10A VP system controller. Tandem mass spectrometric (MS/MS) detection was carried out on a Sciex ABI3200 QTrap in the positive ion mode (ESI) by multiple reaction monitoring, precursor ion scan, and enhanced product ion scan. The mobile phases contained 10 mM ammonium acetate in water with 0.05% formic acid (solvent A) and 10 mM ammonium acetate in 50% acetonitrile/50% methanol with 0.05% formic acid (solvent B). […] Analytes were separated using a linear gradient as follows:
# Analytes were separated using a linear gradient as follows:
# [2] = test system: DK-PGD2-induced peripheral blood leukocyte influx; experiment: Guinea pig IV-DKPGD2-induced peripheral blood leukocyte influx; assay type: in vivo; conditions: for ED50: Cavia porcellus, Leukocyte, oral
# Procedure: Methods were adapted from those detailed Shichijo et al., 2003, Journal of Pharmacology and Experimental Therapeutics, 307:518-525. Male Hartley guinea pigs were immunized with ovalbumin (OVA) on day 0 by intraperitoneal (IP) injection of 1 ml of a 100 μg/ml solution in Imject Alum. They were then used in the DK-PGD2 procedure between days 14 and 21. Subjects were randomly assigned to receive either vehicle (0.5% methyl cellulose, 4 ml/kg, oral (PO)) or one of three to four doses of test compound. Two hours or eighteen hours after dosing, animals were anesthetized with ketamine and challenged with DK-PGD2 (1 mg/kg, IV). Thirty minutes after IV administration, blood was collected via the marginal ear vein into EDTA tubes for cell analysis. 10 μl blood was lysed in 190 μl water followed by a further 20-fold dilution in PBS. A 10 μl fraction was mixed with equal parts trypan blue and loaded on a hemocytometer. Cells were visualized at a magnification of 40× using a LabPro light microscope and totals counted and recorded. Cells are expressed as total cells×10^8 per ml of blood. Inhibition of this effect by select compounds is determined statistically using Graphpad prism.
# [3] = target: T1, Cytochrome P450 Enzyme 1A2 (Homo sapiens, UniProt P05177)
# T1 sequence (P05177 1-516): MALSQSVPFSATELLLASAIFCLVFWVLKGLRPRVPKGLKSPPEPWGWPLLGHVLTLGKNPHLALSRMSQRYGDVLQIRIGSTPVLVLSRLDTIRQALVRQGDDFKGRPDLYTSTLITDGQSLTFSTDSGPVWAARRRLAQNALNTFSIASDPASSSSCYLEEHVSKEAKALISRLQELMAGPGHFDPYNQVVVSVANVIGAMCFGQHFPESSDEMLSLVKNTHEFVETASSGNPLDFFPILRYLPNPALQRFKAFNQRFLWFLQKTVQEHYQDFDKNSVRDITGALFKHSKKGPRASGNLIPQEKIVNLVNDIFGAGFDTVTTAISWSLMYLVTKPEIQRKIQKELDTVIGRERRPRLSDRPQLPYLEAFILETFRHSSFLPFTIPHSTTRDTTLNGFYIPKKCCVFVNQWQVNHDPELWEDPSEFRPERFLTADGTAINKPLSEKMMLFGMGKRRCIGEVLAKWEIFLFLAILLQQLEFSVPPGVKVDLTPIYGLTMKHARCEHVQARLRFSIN
# Procedure: (§1) In general, microsomes at protein concentrations as defined in Table 12 were mixed with buffer (100 mM KH2PO4, pH 7.4), MgCl2 (6 mM)) and substrate, and were kept on ice. Aliquots of this mixture (89 μL) were delivered to each well of a 96-well polypropylene plate which contained an aliquot of inhibitor (1 μL) in acetonitrile:water (1:1). Final solvent concentrations were less than 1% (v/v). Incubations were initiated with the addition of 10 μL β-NADPH (10 mM stock) to a final volume of 100 μL. […] Samples were centrifuged at 4° C., and supernatant was transferred for LC-MS/MS analysis.
# [4] = target: Cytochrome P450 Enzyme 3A4 (Homo sapiens, UniProt P08684); conditions: microsomes
# Procedure: as §1
# [5] = target: Cytochrome P450 Enzyme 2C9 (Homo sapiens, UniProt P11712); experiment: Extracellular cytochrome P450 inhibition, CYP2C9; assay type: in vitro ADME; conditions: diclofenac 4′-hydroxylation, microsomes
# Procedure: as §1
# in vivo = conditions: Hartley, guinea pig, plasma, po
# [6] = Properties of the amorphous phase; assay type: physicochemical; conditions: from 0% to 90% relative humidity
# [7] = test system: mouse model of ovalbumin (OVA)-induced allergic rhinitis; experiment: Mouse allergic rhinitis model; assay type: in vivo; conditions: daily 10 mg/kg PO, OVA-primed and challenged mice
# [8] = target: Cytochrome P450 Enzyme 2D6 (Homo sapiens, UniProt P10635); experiment: Extracellular cytochrome P450 inhibition, CYP2D6; assay type: in vitro ADME; conditions: dextromethorphan O-demethylation, microsomes
# Procedure: as §1
# [9] = Canine studies of formulations; assay type: in vivo; conditions: oral formulations
# DP2 receptor = target: T2, DP2 receptor (Homo sapiens, UniProt Q9Y5Y4); experiment: Phase I study, ex vivo PGD2-induced blood eosinophil shape change (ESC); assay type: in vivo; design: endogenous in cells; host or cells: eosinophils in human whole blood; conditions: humans
# T2 sequence (Q9Y5Y4 1-395): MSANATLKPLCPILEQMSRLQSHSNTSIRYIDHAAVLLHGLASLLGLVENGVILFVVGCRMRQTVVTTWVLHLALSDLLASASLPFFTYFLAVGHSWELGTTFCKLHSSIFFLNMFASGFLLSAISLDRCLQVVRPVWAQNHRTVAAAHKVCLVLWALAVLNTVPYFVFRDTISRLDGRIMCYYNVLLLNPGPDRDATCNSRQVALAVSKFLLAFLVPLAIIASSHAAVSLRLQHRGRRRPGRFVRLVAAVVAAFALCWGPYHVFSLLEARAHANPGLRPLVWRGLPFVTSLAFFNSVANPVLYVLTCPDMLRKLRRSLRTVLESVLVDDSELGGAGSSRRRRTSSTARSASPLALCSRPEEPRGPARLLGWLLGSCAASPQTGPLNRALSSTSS
# Procedure: Blood is drawn from consenting human volunteers in EDTA vacutainer tubes and used within 1 hr of draw. […] The blood is vortexed and incubated at 37° C. for 5 minutes. 5 μl of 1 μM PGD2 in PBS is added for a final concentration of 50 nM and the tubes briefly vortexed. The reactions are incubated for exactly 5 minutes at 37° C. and then terminated by placing the tubes on ice and immediately adding 250 μl of ice-cold 1:4 diluted Cytofix (BD Biosciences). The reactions are transferred to 12×75 mM polystyrene round bottom tubes and the red blood cells lysed by the addition of 3 ml ammonium chloride lysing solution (150 mM NH4Cl, 10 mM KHCO3, 0.1 mM EDTA disodium salt) and incubation at room temperature for 15 minutes. […] The cells are resuspended in 0.2 ml of ice-cold 1:4 diluted Cytofix (BD Biosciences) and analyzed on a FACSCalibur (BD Biosciences) within 2 hours. […] The specific change in shape induced by PGD2 was calculated as the difference between the percentage of high forward scatter eosinophils in the presence and absence of PGD2.
# At varying times after dosing blood is drawn for both pharmacokinetic analyses of drug concentration in blood, and also for PGD2 challenge and eosinophil shape change determination. The extent of receptor blockage is determined from the relationship between drug blood concentration and percentage inhibition of eosinophil shape change.
# [10] = test system: guinea pig OVA model of allergen-induced asthma; experiment: Guinea pig allergic asthma model; assay type: in vivo; conditions: 3 mg/kg and 30 mg/kg b.i.d. PO, 24 hours after aerosolized OVA challenge
# Procedure: Aerosolized OVA challenge to OVA-primed guinea pigs causes a significant influx of cells into the bronchoalveolar lavage fluid taken 24 hours after challenge. This increase is primarily from influx of eosinophils and neutrophils with a small proportion from macrophages.
# [11] = target: Cytochrome P450 Enzyme 2C19 (Homo sapiens, UniProt P33261); experiment: Extracellular cytochrome P450 inhibition, CYP2C19
# Procedure: as §1
# Sequence of Cytochrome P450 Enzyme 2C19 (P33261 whole entry): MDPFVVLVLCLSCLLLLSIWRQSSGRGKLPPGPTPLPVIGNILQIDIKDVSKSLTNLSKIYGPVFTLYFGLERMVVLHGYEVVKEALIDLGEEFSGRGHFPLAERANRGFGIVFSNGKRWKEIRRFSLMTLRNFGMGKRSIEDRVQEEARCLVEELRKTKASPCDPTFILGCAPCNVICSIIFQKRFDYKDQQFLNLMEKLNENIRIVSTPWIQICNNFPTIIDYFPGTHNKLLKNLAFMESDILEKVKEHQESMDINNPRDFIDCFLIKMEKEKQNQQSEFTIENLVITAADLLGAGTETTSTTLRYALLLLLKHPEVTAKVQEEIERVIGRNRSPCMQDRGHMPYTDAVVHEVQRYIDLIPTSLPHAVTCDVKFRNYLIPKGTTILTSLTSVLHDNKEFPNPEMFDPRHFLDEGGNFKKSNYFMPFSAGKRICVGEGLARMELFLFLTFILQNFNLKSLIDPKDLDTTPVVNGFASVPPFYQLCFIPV
# Sequence of Cytochrome P450 Enzyme 3A4 (P08684 whole entry): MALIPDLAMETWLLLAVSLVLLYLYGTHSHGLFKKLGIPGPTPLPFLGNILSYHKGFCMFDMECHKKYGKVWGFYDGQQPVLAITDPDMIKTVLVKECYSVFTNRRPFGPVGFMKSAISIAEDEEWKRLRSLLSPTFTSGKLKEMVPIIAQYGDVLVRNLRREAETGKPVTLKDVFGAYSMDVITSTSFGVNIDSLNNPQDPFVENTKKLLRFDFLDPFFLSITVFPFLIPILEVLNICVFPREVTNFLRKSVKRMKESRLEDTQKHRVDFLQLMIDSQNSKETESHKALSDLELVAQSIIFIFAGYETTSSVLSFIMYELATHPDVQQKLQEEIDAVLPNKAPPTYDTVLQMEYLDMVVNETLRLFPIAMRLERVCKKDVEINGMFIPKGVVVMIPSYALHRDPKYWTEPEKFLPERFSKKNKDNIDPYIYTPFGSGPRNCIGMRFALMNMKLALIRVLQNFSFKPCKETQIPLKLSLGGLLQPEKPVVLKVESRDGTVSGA
# Sequence of Cytochrome P450 Enzyme 2D6 (P10635 whole entry): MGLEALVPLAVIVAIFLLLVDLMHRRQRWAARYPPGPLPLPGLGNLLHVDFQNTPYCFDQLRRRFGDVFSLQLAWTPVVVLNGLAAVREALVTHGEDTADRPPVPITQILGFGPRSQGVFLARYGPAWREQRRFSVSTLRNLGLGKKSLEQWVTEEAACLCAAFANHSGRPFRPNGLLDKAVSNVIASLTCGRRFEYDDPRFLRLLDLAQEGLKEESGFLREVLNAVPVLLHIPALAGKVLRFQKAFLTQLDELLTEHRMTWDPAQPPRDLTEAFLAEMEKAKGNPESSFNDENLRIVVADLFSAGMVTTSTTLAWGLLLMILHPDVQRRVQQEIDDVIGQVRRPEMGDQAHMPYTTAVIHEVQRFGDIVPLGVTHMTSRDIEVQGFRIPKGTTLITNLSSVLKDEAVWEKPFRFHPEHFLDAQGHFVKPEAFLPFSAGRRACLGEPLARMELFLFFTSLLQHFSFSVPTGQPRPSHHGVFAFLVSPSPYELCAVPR
# Sequence of Cytochrome P450 Enzyme 2C9 (P11712 whole entry): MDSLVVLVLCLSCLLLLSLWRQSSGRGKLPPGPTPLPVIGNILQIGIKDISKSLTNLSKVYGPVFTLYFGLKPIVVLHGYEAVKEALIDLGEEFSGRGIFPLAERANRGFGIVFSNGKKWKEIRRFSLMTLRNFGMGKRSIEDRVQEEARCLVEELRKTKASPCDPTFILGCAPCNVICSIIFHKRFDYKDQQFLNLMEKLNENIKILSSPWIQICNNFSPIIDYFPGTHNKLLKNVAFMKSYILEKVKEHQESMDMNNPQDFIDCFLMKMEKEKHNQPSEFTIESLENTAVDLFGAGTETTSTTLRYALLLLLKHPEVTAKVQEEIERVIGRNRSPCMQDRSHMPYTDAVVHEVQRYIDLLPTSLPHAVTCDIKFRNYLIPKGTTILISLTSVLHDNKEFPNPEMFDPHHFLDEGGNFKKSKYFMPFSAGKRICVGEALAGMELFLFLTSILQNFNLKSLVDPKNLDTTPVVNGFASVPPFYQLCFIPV
smiles,measurement,setting,value
"CCN(Cc1cc(C(F)(F)F)ccc1-c1cc(CC(=O)O[C@@H]2O[C@H](C(=O)O)[C@@H](O)[C@H](O)[C@H]2O)ccc1OC)C(=O)NCc1ccccc1 [Compound M2, acyl gluconuride of [2′-(3-benzyl-1-ethyl-ureidomethyl)-6-methoxy-4′-trifluoromethyl-biphenyl-3-yl]-acetic acid]","metabolite in rat bile, peak area relative to parent",[1],273 % of parent
"CCN(Cc1cc(C(F)(F)F)ccc1-c1cc(CC(=O)[O-])ccc1OC)C(=O)NCc1ccccc1.[Na+] [Compound 2, [2′-(3-benzyl-1-ethyl-ureidomethyl)-6-methoxy-4′-trifluoromethyl-biphenyl-3-yl]-acetic acid, sodium salt]",associated EC50 (plasma concentration),[2]; 2 hr study,0.055 µM
same,inhibition of DK-PGD2-induced peripheral blood leukocyte increase,"[2]; 2 hr study, oral 0.1 mg/kg",21%
same,inhibition of DK-PGD2-induced peripheral blood leukocyte increase,"[2]; 2 hr study, oral 1 mg/kg",59%
same,inhibition of DK-PGD2-induced peripheral blood leukocyte increase,"[2]; 2 hr study, oral 10 mg/kg",62%
same,inhibition of DK-PGD2-induced peripheral blood leukocyte increase,"[2]; 2 hr study, oral 30 mg/kg",80%
same,observed EC50,[2]; 18 hr study,< 0.04 µM
same,inhibition of peripheral blood leukocyte numbers,"[2]; 18 hr study, oral 1 mg/kg",0%
same,inhibition of peripheral blood leukocyte numbers,"[2]; 18 hr study, oral 10 mg/kg",29%
same,inhibition of peripheral blood leukocyte numbers,"[2]; 18 hr study, oral 30 mg/kg",50%
same,inhibition of peripheral blood leukocyte numbers,"[2]; 18 hr study, oral 100 mg/kg",77%
same,ED50,"[2]; 2 hr study, read-out: ED50",0.85 mg/kg
same,ED50,"[2]; 18 hr study, read-out: calculated ED50",30 mg/kg
same,IC50,[3],> 50 µM
same,IC50,"[4]; IC50, midazolam 1-hydroxylation",40 µM
same,IC50,"[4]; IC50, testosterone 6β-hydroxylation",> 50 µM
same,IC50,[5],> 50 µM
same,concentration at 2.5 h,in vivo; 0.1 mg/kg,22 nM
same,concentration at 2.5 h,in vivo; 1 mg/kg,61 nM
same,concentration at 2.5 h,in vivo; 10 mg/kg,222 nM
same,concentration at 2.5 h,in vivo; 30 mg/kg,727 nM
same,"hygroscopicity, weight change",[6],36%
same,nasal rubs,[7],trend toward a decrease
same,sneezing behavior,[7],significantly reduced sneezing behavior
same,IC50,[8],> 50 µM
same,absorption,[9],rapidly absorbed in the stomach and upper gastrointestinal tract
same,inhibition at 100 mg,"DP2 receptor; at 24 hours, 100 mg dose",75 to 90%
same,inhibition of the PGD2-induced eosinophil shape change (ESC),"DP2 receptor; at Cmax, doses equal to or greater than 30 mg",80-100%
same,cellular influx into bronchoalveolar lavage fluid,[10],dose-dependently reduced total cellular influx including eosinophils and neutrophils
same,IC50,[11],> 50 µM
"CCC1(c2ccccc2)C(=O)NC(=O)N(Cc2ccccc2)C1=O (single isomer, unassigned; (-)) [(-)-N-3-benzyl-phenobarbital, reference compound]",IC50,"[11]; mephenytoin 4′-hydroxylation, microsomes",1.2 µM
